{"source": "patent US11730705B2", "about": "“Small molecule CMKLR1 antagonists in inflammatory disease” (The Board of Trustees of the Leland Stanford Junior …, priority 2019, dated 2023)", "key": {"[1]": {"tested_on": "cytochrome P450 (Cyp) drug metabolizing enzymes", "assay": "Time-dependent (mechanism-based) Cyp inhibition", "type": "in vitro ADME, human", "method": "(§1) Cyp enzyme inhibition. Human liver microsomes were pre-incubated with 7 concentrations ([…], duplicate wells) of α-NETA for 30 min."}, "[2]": {"biological_target": "T1, Cyp3A4 (Homo sapiens, UniProt P08684)", "T1 sequence (P08684 whole entry)": "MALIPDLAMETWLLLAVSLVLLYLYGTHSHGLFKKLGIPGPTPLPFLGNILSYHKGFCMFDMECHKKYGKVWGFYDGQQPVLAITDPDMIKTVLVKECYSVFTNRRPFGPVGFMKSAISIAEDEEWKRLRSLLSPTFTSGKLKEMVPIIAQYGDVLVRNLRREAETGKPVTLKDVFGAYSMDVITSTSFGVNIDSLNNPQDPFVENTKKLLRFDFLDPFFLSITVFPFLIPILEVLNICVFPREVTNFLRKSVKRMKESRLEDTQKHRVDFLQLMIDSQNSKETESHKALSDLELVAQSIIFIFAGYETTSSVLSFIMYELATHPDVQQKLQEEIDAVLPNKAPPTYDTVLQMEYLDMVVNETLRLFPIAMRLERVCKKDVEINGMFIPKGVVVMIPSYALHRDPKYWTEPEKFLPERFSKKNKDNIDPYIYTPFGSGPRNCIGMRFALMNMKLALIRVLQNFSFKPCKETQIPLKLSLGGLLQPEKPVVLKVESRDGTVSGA", "assay": "Cyp enzyme inhibition, human liver microsomes", "type": "in vitro ADME", "parameters": "Human liver microsomes were pre-incubated with 7 concentrations; tissue Cyprotex/Evotec AG; host or cells: human liver microsomes", "method": "as §1"}, "[3]": {"biological_target": "T2, Cyp2C9 (Homo sapiens, UniProt P11712)", "T2 construct": "Human liver microsomes were pre-incubated with 7 concentrations; tissue Cyprotex/Evotec AG; host or cells: human liver microsomes", "T2 sequence (P11712 whole entry)": "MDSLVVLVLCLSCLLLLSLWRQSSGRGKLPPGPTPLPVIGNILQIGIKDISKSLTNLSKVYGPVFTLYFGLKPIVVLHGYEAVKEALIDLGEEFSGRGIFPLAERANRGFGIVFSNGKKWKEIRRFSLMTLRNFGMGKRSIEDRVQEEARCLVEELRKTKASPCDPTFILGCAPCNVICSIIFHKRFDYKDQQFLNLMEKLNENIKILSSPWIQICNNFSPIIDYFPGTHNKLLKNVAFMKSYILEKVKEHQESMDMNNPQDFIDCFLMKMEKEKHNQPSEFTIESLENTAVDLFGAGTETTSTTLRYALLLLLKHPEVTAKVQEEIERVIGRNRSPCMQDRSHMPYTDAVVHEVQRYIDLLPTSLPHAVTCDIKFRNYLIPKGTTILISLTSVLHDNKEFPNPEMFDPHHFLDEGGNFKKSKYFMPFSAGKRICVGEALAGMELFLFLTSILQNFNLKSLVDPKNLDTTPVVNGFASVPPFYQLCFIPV", "assay": "Cyp enzyme inhibition, human liver microsomes", "type": "in vitro ADME", "settings": "30 min pre-incubation", "method": "as §1"}, "[4]": {"biological_target": "T3, Cyp2C19 (Homo sapiens, UniProt P33261)", "T3 construct": "Human liver microsomes were pre-incubated with 7 concentrations; tissue Cyprotex/Evotec AG; host or cells: human liver microsomes", "T3 sequence (P33261 whole entry)": "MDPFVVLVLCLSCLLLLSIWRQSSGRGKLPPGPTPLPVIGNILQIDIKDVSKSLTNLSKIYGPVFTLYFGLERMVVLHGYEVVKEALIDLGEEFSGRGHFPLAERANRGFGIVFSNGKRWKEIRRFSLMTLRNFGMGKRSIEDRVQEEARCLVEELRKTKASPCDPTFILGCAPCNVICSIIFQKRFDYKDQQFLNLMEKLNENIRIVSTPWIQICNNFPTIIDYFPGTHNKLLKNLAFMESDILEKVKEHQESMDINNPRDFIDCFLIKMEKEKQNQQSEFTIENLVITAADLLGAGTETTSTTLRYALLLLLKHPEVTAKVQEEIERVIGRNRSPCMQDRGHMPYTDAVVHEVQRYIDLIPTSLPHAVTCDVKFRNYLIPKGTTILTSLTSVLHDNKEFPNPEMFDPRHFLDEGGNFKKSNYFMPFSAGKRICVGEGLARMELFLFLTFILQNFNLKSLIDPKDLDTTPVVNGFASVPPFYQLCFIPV", "assay": "Cyp enzyme inhibition, human liver microsomes", "type": "in vitro ADME", "settings": "30 min pre-incubation", "method": "as §1"}, "[5]": {"biological_target": "T4, Cyp2C8 (Homo sapiens, UniProt P10632)", "T4 construct": "Human liver microsomes were pre-incubated with 7 concentrations; tissue Cyprotex/Evotec AG; host or cells: human liver microsomes", "T4 sequence (P10632 1-490)": "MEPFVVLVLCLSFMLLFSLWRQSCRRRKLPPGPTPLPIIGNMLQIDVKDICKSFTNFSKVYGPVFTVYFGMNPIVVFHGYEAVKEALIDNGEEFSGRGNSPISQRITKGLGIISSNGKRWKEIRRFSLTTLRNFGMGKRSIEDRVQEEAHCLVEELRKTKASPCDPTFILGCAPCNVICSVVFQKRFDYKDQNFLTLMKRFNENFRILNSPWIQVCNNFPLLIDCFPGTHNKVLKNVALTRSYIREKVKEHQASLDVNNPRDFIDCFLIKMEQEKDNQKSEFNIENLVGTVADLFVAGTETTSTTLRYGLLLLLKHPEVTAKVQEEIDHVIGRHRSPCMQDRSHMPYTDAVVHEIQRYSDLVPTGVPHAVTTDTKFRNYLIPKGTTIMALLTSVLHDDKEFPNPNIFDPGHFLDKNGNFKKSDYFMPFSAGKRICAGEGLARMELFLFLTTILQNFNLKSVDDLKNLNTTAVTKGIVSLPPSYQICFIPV", "assay": "Cyp enzyme inhibition, human liver microsomes", "type": "in vitro ADME", "settings": "30 min pre-incubation", "method": "as §1"}, "[6]": {"biological_target": "Cyp1A2 (Homo sapiens, UniProt P05177)", "sequence (P05177 whole entry)": "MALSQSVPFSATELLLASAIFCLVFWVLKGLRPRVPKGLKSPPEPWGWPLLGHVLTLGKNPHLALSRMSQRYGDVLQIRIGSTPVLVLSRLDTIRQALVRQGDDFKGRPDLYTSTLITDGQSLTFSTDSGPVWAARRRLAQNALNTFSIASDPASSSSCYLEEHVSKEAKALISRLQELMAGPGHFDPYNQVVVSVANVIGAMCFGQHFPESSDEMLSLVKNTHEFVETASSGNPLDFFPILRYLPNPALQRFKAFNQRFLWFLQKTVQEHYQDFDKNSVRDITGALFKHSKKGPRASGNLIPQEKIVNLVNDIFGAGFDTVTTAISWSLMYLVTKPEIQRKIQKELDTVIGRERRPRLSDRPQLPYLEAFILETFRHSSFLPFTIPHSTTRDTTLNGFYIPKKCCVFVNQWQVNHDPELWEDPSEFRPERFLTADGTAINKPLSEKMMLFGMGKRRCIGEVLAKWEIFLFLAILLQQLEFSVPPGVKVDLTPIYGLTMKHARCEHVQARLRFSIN", "settings": "PubChem BioAssay ID 1476; read-out: Cyp Inhibition IC50 (μM), Cyp1A2; cited from earlier work"}, "[7]": {"biological_target": "T1, Cyp3A4", "settings": "substrate luciferin-6′ phenylpiperazinylyl; read-out: Cyp3A4 IC50 listed in PubChem; cited from earlier work"}, "[8]": {"biological_target": "T5, hERG (Homo sapiens, UniProt Q12809)", "T5 construct": "host or cells: CHO", "T5 sequence (Q12809 whole entry)": "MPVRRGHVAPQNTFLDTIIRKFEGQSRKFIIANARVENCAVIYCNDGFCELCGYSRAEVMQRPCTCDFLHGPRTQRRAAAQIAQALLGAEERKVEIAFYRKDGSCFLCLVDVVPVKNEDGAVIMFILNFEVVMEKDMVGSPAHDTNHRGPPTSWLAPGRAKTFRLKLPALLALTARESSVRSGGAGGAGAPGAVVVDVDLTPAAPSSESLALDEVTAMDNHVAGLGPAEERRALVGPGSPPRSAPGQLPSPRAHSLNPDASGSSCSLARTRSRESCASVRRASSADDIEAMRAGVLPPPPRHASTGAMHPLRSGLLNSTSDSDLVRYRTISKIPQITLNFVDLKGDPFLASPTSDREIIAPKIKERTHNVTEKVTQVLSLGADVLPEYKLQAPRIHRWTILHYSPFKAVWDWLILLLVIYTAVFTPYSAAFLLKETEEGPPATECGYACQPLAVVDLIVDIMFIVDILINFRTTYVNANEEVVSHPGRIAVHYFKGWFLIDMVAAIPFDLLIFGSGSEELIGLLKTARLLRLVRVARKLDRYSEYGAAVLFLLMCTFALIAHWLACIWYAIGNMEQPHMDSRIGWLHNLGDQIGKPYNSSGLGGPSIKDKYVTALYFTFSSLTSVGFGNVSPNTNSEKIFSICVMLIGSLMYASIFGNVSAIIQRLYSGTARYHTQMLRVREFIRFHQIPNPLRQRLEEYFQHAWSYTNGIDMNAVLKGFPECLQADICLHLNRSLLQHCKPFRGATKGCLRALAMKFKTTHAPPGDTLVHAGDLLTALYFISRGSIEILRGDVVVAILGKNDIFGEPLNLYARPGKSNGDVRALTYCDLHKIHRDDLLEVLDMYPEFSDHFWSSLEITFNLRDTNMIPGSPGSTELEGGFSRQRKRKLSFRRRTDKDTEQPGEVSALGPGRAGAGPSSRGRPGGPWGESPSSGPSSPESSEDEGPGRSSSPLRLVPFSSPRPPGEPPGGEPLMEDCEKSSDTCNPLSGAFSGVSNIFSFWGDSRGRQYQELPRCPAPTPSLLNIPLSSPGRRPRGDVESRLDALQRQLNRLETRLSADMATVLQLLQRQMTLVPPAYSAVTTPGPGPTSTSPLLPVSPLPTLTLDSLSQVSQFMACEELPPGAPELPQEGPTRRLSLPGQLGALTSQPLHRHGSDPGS", "assay": "hERG inhibition patch-clamp assay, CHO-hERG cells", "type": "cell-based", "settings": "hERG tail current, preliminary studies", "method": "Pregnane X receptor (PXR) activation was used as a marker of Cyp induction.\nThe cell was depolarized, and the hERG tail current was measured, and IC50 determined (Cyprotex/Evotec AG)."}, "[9]": {"biological_target": "T6, (hu)CMKLR1 L1.2 cells (Homo sapiens, UniProt Q99788)", "T6 construct": "expressed in transfected cells; host or cells: L1.2 pre-B cell lymphoma cells", "T6 sequence (Q99788 1-373)": "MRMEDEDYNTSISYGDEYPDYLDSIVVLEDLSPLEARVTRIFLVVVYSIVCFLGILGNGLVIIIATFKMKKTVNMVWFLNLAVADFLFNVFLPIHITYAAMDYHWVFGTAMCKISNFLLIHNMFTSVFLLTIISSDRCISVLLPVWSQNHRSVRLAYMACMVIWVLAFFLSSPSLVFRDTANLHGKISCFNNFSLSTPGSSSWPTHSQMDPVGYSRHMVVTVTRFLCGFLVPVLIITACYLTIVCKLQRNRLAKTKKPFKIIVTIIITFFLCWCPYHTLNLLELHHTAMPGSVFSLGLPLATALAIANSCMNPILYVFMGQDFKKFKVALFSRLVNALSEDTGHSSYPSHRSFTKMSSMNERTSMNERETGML", "assay": "Chemotaxis assay (chemerin-dependent CMKLR1+ cell migration)", "type": "cell-based", "settings": "Table 3; migration toward huChemerin, 2 h transwell; read-out: Chemotaxis IC50 μM mean ± SEM (n)", "method": "Cell culture. (hu)CMKLR1 transfectants (generated in L1.2 pre-B cell lymphoma cells) were grown in RPMI 1640 (Corning) supplemented with L-glutamine, penicillin-streptomycin, and 10% BCS and G418-sulfate (KSE Scientific). DiscoverX PathHunter® CHO-K1 CMKLR1 β-Arrestin Cells were grown in RPMI lacking phenol red (Gibco, Life Technologies), supplemented with L-glutamine, penicillin-streptomycin, sodium pyruvate, non-essential amino acid, BCS, hygromycin, and G418-sulfate.\nChemotaxis assay. (hu)CMKLR1 L1.2 cells at 1×10^6 cell/ml were treated with 5 mM sodium butyrate (Sigma) overnight to induce hCMKLR1 expression. The next day, cells were washed in migration media (RPMI+0.5% BSA) and resuspended at 1.5-3×10^6 cell/ml. Cells were pre-incubated at RT for 10 min with various concentrations of α-NETA or test compounds (α-NETA and test compounds were reconstituted in DMSO; final DMSO concentration in each well was 0.1%). 100 ul of cells were added to the upper chamber of a 24-well transwell plate (5 um pore size, Costar). Cells were allowed to migrate toward huChemerin ([…] in migration media, bottom chamber) for 2 h, 37° C., 5% CO2. The number of migrated cells was quantified by flow cytometry (BD LSR2), and live cells were distinguished based on FSC×SSC properties. The background for this assay was typically low with 0 cells migrating to the buffer alone. For each independent trial, data was normalized to the maximum migration per compound tested and an IC50 value was generated using GraphPad Prism software. The average IC50 value for n independent trials (as specified in the table) is reported."}, "[10]": {"tested_on": "C57/BL6 mice", "assay": "α-NETA acute single dose toxicity (LD50)", "type": "in vivo, mouse", "excerpt": "FIG. 3. Acute single dose toxicity (LD50) of α-NETA. […] The remaining mice were monitored for 14 days. Graph depicts lethality at each dose, n=3 per mice/dose."}}, "note": "Values joined by “and” are separate entries in the source; they are usually repeats but may differ in a detail not shown here. Equal values may be shown once. Read-outs that look alike come from different tables or passages of the source.", "data": [{"compound": "C[N+](C)(C)CCC(=O)c1cccc2ccccc12.[I-]", "note": "[α-NETA, 2-(α-naphthoyl) ethyltrimethylammonium iodide]", "values": [{"measurement": "time-dependent (mechanism-based) Cyp inhibition", "setting": "[1]", "value": "No time-dependent (mechanism-based) Cyp inhibition was detected"}, {"measurement": "IC50", "setting": "[2]; human liver microsomes, substrate Midazolam, read-out: Cyp Inhibition IC50 (μM), Cyp3A4", "value": "7.4 µM and 7.5 µM"}, {"measurement": "IC50", "setting": "[2]; substrate testosterone, read-out: Cyp3A4 IC50", "value": 6.9, "unit": "µM"}, {"measurement": "IC50", "setting": "[3]", "value": 14.6, "unit": "µM"}, {"measurement": "IC50", "setting": "[4]", "value": 84, "unit": "µM"}, {"measurement": "IC50", "setting": "[5]", "value": 1.5, "unit": "µM"}, {"measurement": "IC50", "setting": "[6]", "value": 8, "unit": "µM"}, {"measurement": "IC50", "setting": "[7]", "value": 0.2, "unit": "µM"}, {"measurement": "IC50", "setting": "[8]", "value": "> 10", "unit": "µM"}, {"measurement": "IC50", "setting": "[9]", "value": "37 ± 8.9", "unit": "µM"}, {"measurement": "calculated LD50, acute single dose", "setting": "[10]; p.o., mice, 10% captisol", "value": 873, "unit": "mg/kg"}, {"measurement": "lethality", "setting": "[10]; two highest doses (3000, 1000 mg/kg) by oral gavage", "value": "Lethal effects were observed within hours"}]}]}
